A word on the pIC50: it is the IC50 on a negative log10 scale, so that one unit is a factor of ten.

For the assay, the system named is T1, PIM-1 or PIM-2.
T1 construct: fused on or other part: C-terminal histidine tag (PIM-1 enzyme); N-terminal histidine tag (PIM-2 enzyme)
The experiment in a line: PIM-1 / PIM-2 biochemical assay (ADP Hunter assay kit). The arrangement: species or system human. As to conditions: tested in either the PIM-1 or the PIM-2 biochemical assay (as appropriate); ATP 100 μM.
Description: The biochemical assay to measure PIM-1 activity relies on the ADP Hunter assay kit (DiscoveRx Corp., Cat. # 90-0077), that determines the amount of ADP as direct product of the kinase enzyme activity.
The enzyme has been expressed and purified in-house as a recombinant human protein with a C-terminal histidine tag. The protein is active and stable.
(§1) Assay conditions were as indicated by the kit manufacturers with the following adaptations for the kinase activity step: • Kinase assay buffer and assay volume stay as recommended (15 mM HEPES, pH 7.4, 20 mM NaCl, 1 mM EGTA, 0.02% Tween 20, 10 mM MgCl2 and 0.1 mg/ml bovine γ-globulins/75 μl assay volume) • Incubation time and temperature: 60 min at 30° C. • PIM-1 concentration: 50 pg/μl • ATP concentration: 100 μM • PIM-1 substrate peptide: PIMtide (ARKRRRHPSGPPTA) • Peptide concentration: 60 μM • Positive control for kinase activity inhibition: 1-10 μM Staurosporine • DMSO concentration have to stay below 2% during the kinase reaction
Assays were performed in either 96 or 384-well plates. The final outcome of the coupled reactions provided by the kit is the release of the fluorescent product Resorufin and has been measured with a multilabel HTS counter VICTOR V (PerkinElmer) using an excitation filter at 544 nm and an emission filter at 580 nm.
The biochemical assay to measure PIM-2 activity relies on the ADP Hunter assay kit (DiscoveRx Corp., Cat. # 90-0077), that determines the amount of ADP as direct product of the kinase enzyme activity.
The enzyme has been expressed and purified in-house as a recombinant human protein with a N-terminal histidine tag. The protein is active and stable.
as §1, with “mg/ml bovine γ-globulins/20 μl assay” for “mg/ml bovine γ-globulins/75 μl assay”, “and temperature: 30 min at” for “and temperature: 60 min at”, “C. • PIM-2 concentration: 350” for “C. • PIM-1 concentration: 50”, “PIM-2 concentration: 350 pg/μl •” for “PIM-1 concentration: 50 pg/μl •”, “Peptide concentration: 100 μM •” for “Peptide concentration: 60 μM •”

pIC50: −log10 of the molar value.

In turn, `CCS(=O)(=O)Nc1cnc2ccc(-c3ccccc3)nn12` [Example 85, Ethanesulfonic acid (6-phenyl-imidazo[1,2-b]pyridazin-3-yl)-amide] had a pIC50 of 4.76.

`O=C(Nc1ccccc1)c1cnc2ccc(OCc3ccccc3)nn12` [Example 34, 6-Benzyloxy-imidazo[1,2-b]pyridazine-3-carboxylic acid phenylamide] gave a pIC50 of 4.96.

Consider `COc1ccc(CNc2nn3c(C(=O)Nc4ccccc4)cnc3cc2C2CCCC2)cc1` [Example 69, 7-Cyclopentyl-6-(4-methoxy-benzylamino)-imidazo[1,2-b]pyridazine-3-carboxylic acid phenylamide], for which the pIC50 is 6.72. This pIC50 lies 1.76 log units higher than the previous one.

Take `O=C(Nc1ccccc1)c1cnc2ccc(Nc3cccnc3)nn12` [Example 41, 6-(Pyridin-3-ylamino)-imidazo[1,2-b]pyridazine-3-carboxylic acid phenyl-amide]: the pIC50 is 7.22.

`O=C(Nc1ccccc1)c1cnc2ccc(-c3ccccc3)nn12` [Example 45, 6-Phenyl-imidazo[1,2-b]pyridazine-3-carboxylic acid phenylamide] showed a pIC50 of 6.31.

In turn, `O=C(Nc1ccccc1)c1cnc2ccc(N3Cc4ccccc4C3)nn12` [Example 44, 6-(1,3-Dihydro-isoindol-2-yl)-imidazo[1,2-b]pyridazine-3-carboxylic acid phenylamide] gave a pIC50 of 6.74.

In turn, `Cc1cc2ncc(C(=O)Nc3ccccc3)n2nc1NCc1cccc(F)c1` [Example 61, 6-(3-Fluoro-benzylamino)-7-methyl-imidazo[1,2-b]pyridazine-3-carboxylic acid phenylamide] showed a pIC50 of 7.22. This pIC50 lies 0.48 log units higher than the previous one.

For `O=C(O)c1ccc(NC(=O)c2cnc3ccc(NCc4ccc(Cl)c(Cl)c4)nn23)cc1` [Example 29, 4-{[6-(3,4-Dichloro-benzylamino)-imidazo[1,2-b]pyridazine-3-carbonyl]-amino}-benzoic acid], the pIC50 was 6.59.

On to `COCCNC(=O)c1cnc2ccc(NCc3ccc(Cl)c(Cl)c3)nn12` [Example 19, 6-(3,4-Dichloro-benzylamino)-imidazo[1,2-b]pyridazine-3-carboxylic acid (2-methoxy-ethyl)-amide], for which the pIC50 is 5.33.

For the molecule `O=C(Nc1cnc2ccc(-c3ccccc3)nn12)c1ccccc1` [Example 84, N-(6-Phenyl-imidazo[1,2-b]pyridazin-3-yl)-benzamide], the pIC50 is 5.28.

Take `Cc1nc2ccc(NCc3ccc(F)cc3)nn2c1C(=O)Nc1ccccc1` [Example 80, 6-(4-Fluoro-benzylamino)-2-methyl-imidazo[1,2-b]pyridazine-3-carboxylic acid phenylamide]: the negative logarithm of the IC50 (pIC50) was 5.34.

For the molecule `Clc1ccc(CNc2ccc3ncc(C#CCc4ccccc4)n3n2)cc1Cl` [Example 73, N-(3,4-dichlorobenzyl)-3-(3-phenylprop-1-ynyl)imidazo[1,2-b]pyridazin-6-amine], the negative logarithm of the IC50 (pIC50) is 5.55.

The molecule `Clc1ccc(CNc2ccc3ncc(CN4CCOCC4)n3n2)cc1Cl` [Example 53, (3,4-Dichloro-benzyl)-(3-morpholin-4-ylmethyl-imidazo[1,2-b]pyridazin-6-yl)-amine] had a pIC50 of 4.48.

Consider `CNC(=O)c1cccc(NC(=O)c2cnc3c(C)cc(NCc4ccc(OC)cc4)nn23)c1` [Example 66, 6-(4-Methoxy-benzylamino)-8-methyl-imidazo[1,2-b]pyridazine-3-carboxylic acid (3-methylcarbamoyl-phenyl)-amide], for which the pIC50 is 5.50.

Consider `COc1ccc(CNc2ccc3ncc(C(=O)Nc4ccc(C(=O)O)cc4)n3n2)cc1` [Example 30], for which the negative-log IC50 (pIC50) was 6.42. Compared with the last molecule, the pIC50 is 0.92 log units higher.

For `O=C(Nc1cnc2ccc(NCc3ccc(F)cc3)nn12)c1ccccc1` [Example 90, N-[6-(4-Fluoro-benzylamino)-imidazo[1,2-b]pyridazin-3-yl]-benzamide], the pIC50 was 5.94.

In turn, `Cc1cc2ncc(C(=O)Nc3ccccc3)n2nc1NCc1ccco1` [Example 58, 6-[(Furan-2-ylmethyl)-amino]-7-methyl-imidazo[1,2-b]pyridazine-3-carboxylic acid phenylamide] gave a pIC50 of 6.52.

For the origin of these results see US20110046127A1, “Imidazopyridazines for Use as Protein Kinase Inhibitors” (priority 2007, published 2011).
